Data taken from paper PMC12143348, “Rapid and reversible fluorescent probe enables repeated snapshot imaging of AMPA receptors during synaptic plasticity” (Science Advances, 2025).
Like-named read-outs stand apart in the source and are kept apart here.

Key:
[1] = tested on: native AMPARs; test: Concentration-dependent binding of PFQX1(AF488) to AMPARs in primary cultured hippocampal neurons; parameters: species or system mouse; details: for Kd: n = 3
Experimental: We modified the Banker’s culture method of hippocampal neurons ([59]). Glass-bottom dishes (14 mm φ, Matsunami) were coated with poly-D-lysine (Sigma-Aldrich) and washed three times with sterile dH2O. Hippocampi from 16-day-old ICR mouse embryos were aseptically dissected and digested with 0.25% (w/v) trypsin (Nacalai Tesque) for 20 min at 37°C. The cells were resuspended in Neurobasal Plus medium supplemented with 10% FBS, 1 mM GlutaMAX I (Invitrogen), penicillin (100 U/ml), and streptomycin (100 μg/ml) and filtered by Cell Strainer (100 μm, Falcon) followed by centrifugation at 1000 rpm for 5 min. The cells were resuspended in Neurobasal Plus medium supplemented with 2% of B-27 Plus Supplement, 1 mM GlutaMAX I (Invitrogen), penicillin (100 U/ml), and streptomycin (100 μg/ml) and plated at a density of 2 × 10^4 cells on glass-bottom dishes. Precultured cortical astrocytes on glass coverslips (13 mm φ) were transferred to the dishes so that astrocytes were faced to neurons. The cultures were maintained at 37°C in a 95% air and 5% CO2 humidified incubator. The culture medium was replaced every 7 days, and the neurons were used at 16 to 18 days in vitro (DIV).
Calcein Red AM (50 nM; AAT Bioquest) was added to the cultured neurons for 30 min at 37°C to visualize the intracellular region. The cells were washed with Hepes-based ACSF [25 mM Hepes (pH 7.4), 140 mM NaCl, 5 mM KCl, 1.3 mM CaCl2, 2 mM MgCl2, and 33 mM glucose], and 100 nM PFQX1(AF488) in Hepes-based ACSF was added to the dish.
For evaluating the concentration dependency of PFQX1(AF488), the cells were treated with 1 nM PFQX1(AF488). Then, PFQX1(AF488) in Hepes-based ACSF was added stepwise to the dish to a final concentration of 3, 10, 30, 100, 300, and 1000 nM. To quantify the concentration dependency after cLTP, the procedure described above was conducted after cLTP stimulation as described in the section “cLTP and quantification of cell-surface AMPARs.” The average intensity of ROIs set on spines was calculated by ZEN blue software after subtracting background fluorescence. The intensity was fitted with KaleidaGraph to calculate the equilibrium constant value using the following equation: a + (b − a)/(1 + (x/c)^d). The equilibrium constant is regarded as the Kd in this study.

[2] = tested on: AMPARs; test: Staining of AMPARs in acute cerebellar slices; assay type: binding, mouse; details: 30 nM probe; acute cerebellar slices; incubation at least 5 min
Experimental: following secondary antibodies were used: donkey anti-mouse CF568 conjugated (Sigma, […]
1:1,000) and anti-rabbit Alexa Fluor Plus 488 conjugated (Invitrogen, A32731, 1,000).
Imaging was performed with confocal microscopy.
With two-step labeling, the cells were labeled as described in “Two -step labeling and PFQX1(AF488)staining in cultured neurons,” followed by immunostaining.
In fig. S9A, the cells were incubated with 500 nM CellTracker Red CMPTX (Invitrogen) instead of Calcein Red AM for 30 min at 37 °C to visualize the intracellular region before the immunostaining.
Preparation and staining of cerebellar acute brain slices
C57BL/6J mice (3 weeks) were anesthetized with isoflurane, and their brains were isolated and immediately transferred to ice-cold cutting solution buffer (120 mM Choline Chloride, 3 mM KCl, 8 mM MgCl2, 1.25 mM NaH2PO4, 28 mM NaHCO3, 22 mM Glucose, and 0.5 mM Sodium ascorbate) gassed with 5% CO2 and 95% O2 and incubated for 5 min. Sagittal cerebellar slices were cut with a microslicer (Neo-linear slicer NLS-MT; DOSAKA EM) in cutting solution buffer and then incubated in ACSF […]
NaHCO3, 10 mM Glucose) gassed with 5% CO 2 and 95% O 2 at 37 °C.
Acute slices were transferred to glass bottom dishes and treated with 30 nM PFQX1(AF488) in HEPES-based ACSF for 5 min. […]
Scale bars, 500 µm. (F) Quantification of probe intensity in Ε. […]

- fraction of AMPARs bound / suppressed by the probe ([1]; 10 nM probe, from Fig. 4C): less than 10%
- Kd ([1]; cultured hippocampal neurons after cLTP stimulation, read-out: Kd value after cLTP): 72.4 ± 17.4 nM
- Kd ([1]; primary cultured hippocampal neurons, spine fluorescence, read-out: Kd / Affinity to native AMPARs): 97.5 ± 9.9 nM
- reversibility of binding (medium exchange) in slices [2]: can be washed out by the medium exchange
Compound: N=c1ccc2c(-c3ccc(C(=O)NCc4ccn(-c5cc6c(cc5C(F)(F)F)[nH]c(=O)c(=O)n6CC(=O)O)c4)cc3C(=O)O)c3ccc(N)c(S(=O)(=O)O)c3oc-2c1S(=O)(=O)O [PFQX1(AF488)]
